Assay results: ChEMBL document CHEMBL5634070, “Assessment of the structure-activity relationship and antileukemic activity of diacylpyramide compounds as human ClpP agonists” (Eur J Med Chem, 2023)
Calls of active or inactive are those of the source. No cut-off for these calls is given here.

Key:
[1] = Toxicity in BALB/c mouse xenografted with human NB4 cells assessed as change in body weight at 30 mg/kg,ip administrated for 30 days; type: organism-based, NB-4; conditions: in vivo, 720 h, time 30 day
NB-4 [2] = test: Antileukemic activity against human NB4 cells assessed as downregulation of SDHB protein expression incubated for 24 hrs by Western blotting analysis; type: functional, cell-based
[3] = molecular target: T1, ATP-dependent Clp protease proteolytic subunit, mitochondrial (Homo sapiens, UniProt Q16740); test: Binding affinity to CLpP in human HEL cells assessed as thermal stabilization at 10 uM at 52.9 to 78 degreeC by cellular thermal shift assay; type: cell-based; conditions: filed as agonist
MOLM-13 [4] = test: Antiproliferative activity against human MOLM-13 cells assessed as inhibition of cell growth incubated for 72 hrs by CCK-8 assay; type: functional, cell-based; conditions: MOLM-13, 72 h
[5] = Toxicity in BALB/c mouse xenografted with human MV4-11 cells assessed as change in body weight at 60 mg/kg,ip administrated for 30 days; type: organism-based; conditions: in vivo, 720 h, time 30 day
MOLM-13 [6] = test: Antileukemic activity against human MOLM-13 cells assessed as reduction in mitochondrial DNA content at 10 uM incubated for 24 hrs; type: functional, cell-based
NB-4 [7] = test: Antileukemic activity against human NB4 cells assessed as downregulation of NDUFA12 protein expression incubated for 24 hrs by Western blotting analysis; type: functional, cell-based
MV4-11 [8] = test: Inhibition of mitochondrial respiration in human MV4-11 cells assessed as reduction in oxygen consumption rate at 5 uM incubated for 24 hrs; type: functional, cell-based
[9] = molecular target: T1, ATP-dependent Clp protease proteolytic subunit, mitochondrial; test: Binding affinity to CLpP in human MOLM-13 cells assessed as thermal stabilization at 10 uM at 52.9 to 78 degreeC by cellular thermal shift assay; type: cell-based; conditions: filed as agonist
NB-4 [10] = test: Antiproliferative activity against human NB4 cells assessed as inhibition of cell growth incubated for 72 hrs by CCK-8 assay; type: functional, cell-based; conditions: NB-4, 72 h
MV4-11 [11] = test: Induction of apoptosis in human MV4-11 cells incubated for 24 to 72 hrs; type: functional, cell-based; conditions: time 24-72 hrs
MOLM-13 [12] = test: Antileukemic activity against human MOLM-13 cells assessed as reduction in cellular ATP content at 10 uM incubated upto 48 hrs; type: functional, cell-based
MV4-11 [13] = test: Antiproliferative activity against human MV4-11 cells assessed as inhibition of cell growth incubated for 72 hrs by CCK-8 assay; type: functional, cell-based; conditions: MV4-11, 72 h
[14] = molecular target: T1, ATP-dependent Clp protease proteolytic subunit, mitochondrial; test: Binding affinity to CLpP in human MV4-11 cells assessed as thermal stabilization at 10 uM at 52.9 to 78 degreeC by cellular thermal shift assay; type: cell-based; conditions: filed as agonist
MV4-11 [15] = test: Inhibition of mitochondrial respiration in human MV4-11 cells assessed as reduction in oxygen consumption rate at 10 uM incubated for 24 hrs; type: functional, cell-based
NB-4 [16] = test: Antileukemic activity against human NB4 cells assessed as downregulation of SDHA protein expression incubated for 24 hrs by Western blotting analysis; type: functional, cell-based
[17] = Toxicity in BALB/c mouse xenografted with human MV4-11 cells assessed as change in body weight at 30 mg/kg,ip administrated for 30 days; type: organism-based; conditions: in vivo, 720 h, time 30 day
NB-4 [18] = test: Antileukemic activity against human NB4 cells xenografted in BALB/c mouse assessed as reduction in tumor weight at 60 mg/kg,ip administrated for 30 days; type: functional, organism-based; conditions: time 30.0 day
MV4-11 [19] = test: Antileukemic activity against human MV4-11 cells xenografted in BALB/c mouse assessed as reduction in tumor volume at 60 mg/kg,ip administrated for 30 days; type: functional, organism-based; conditions: time 30.0 day
NB-4 [20] = test: Antileukemic activity against human NB4 cells assessed as reduction in mitochondrial DNA content at 10 uM incubated for 24 hrs; type: functional, cell-based
NB-4 [21] = test: Antileukemic activity against human NB4 cells xenografted in BALB/c mouse assessed as reduction in tumor weight at 30 mg/kg,ip administrated for 30 days; type: functional, organism-based; conditions: time 30.0 day
HEL [22] = test: Antiproliferative activity against human HEL cells assessed as inhibition of cell growth incubated for 72 hrs by CCK-8 assay; type: functional, cell-based
[23] = molecular target: T1, ATP-dependent Clp protease proteolytic subunit, mitochondrial; test: Binding affinity to human CLpP assessed as change in melting temperature by DSF assay; conditions: filed as agonist
HEL [24] = test: Antileukemic activity against human HEL cells assessed as reduction in mitochondrial DNA content at 10 uM incubated for 24 hrs; type: functional, cell-based
NB-4 [25] = test: Antileukemic activity against human NB4 cells assessed as downregulation of NDUFB8 protein expression incubated for 24 hrs by Western blotting analysis; type: functional, cell-based
MOLM-13 [26] = test: Inhibition of mitochondrial respiration in human MOLM-13 cells assessed as reduction in oxygen consumption rate at 10 uM incubated for 24 hrs; type: functional, cell-based
MV4-11 [27] = test: Antiproliferative activity against human MV4-11 cells cultured as 3D cells assessed as inhibition of cell growth; type: functional, cell-based
MV4-11 [28] = test: Antileukemic activity against human MV4-11 cells xenografted in BALB/c mouse assessed as reduction in tumor weight at 30 mg/kg,ip administrated for 30 days; type: functional, organism-based; conditions: time 30.0 day
NB-4 [29] = test: Antileukemic activity against human NB4 cells xenografted in BALB/c mouse assessed as reduction in tumor volume at 60 mg/kg,ip administrated for 30 days; type: functional, organism-based; conditions: time 30.0 day
MV4-11 [30] = test: Antileukemic activity against human MV4-11 cells assessed as reduction in mitochondrial DNA content at 10 uM incubated for 24 hrs; type: functional, cell-based
MOLM-13 [31] = test: Induction of apoptosis in human MOLM-13 cells incubated for 24 to 72 hrs; type: functional, cell-based; conditions: time 24-72 hrs
[32] = molecular target: T1, ATP-dependent Clp protease proteolytic subunit, mitochondrial; test: Agonist activity at human CLpP by measuring alpha-casein hydrolysis using alpha-casein as substrate preincubated for 10 mins followed by substrate addition and measured after 120 mins by Coomassie brilliant blue staining based SDS-PAGE assay
NB-4 [33] = test: Inhibition of mitochondrial respiration in human NB4 cells assessed as reduction in oxygen consumption rate at 5 uM incubated for 24 hrs; type: functional, cell-based
NB-4 [34] = test: Antileukemic activity against human NB4 cells assessed as downregulation of UQCRC2 protein expression incubated for 24 hrs by Western blotting analysis; type: functional, cell-based
NB-4 [35] = test: Inhibition of mitochondrial respiration in human NB4 cells assessed as reduction in oxygen consumption rate at 10 uM incubated for 24 hrs; type: functional, cell-based
NB-4 [36] = test: Antileukemic activity against human NB4 cells assessed as downregulation of NDUFV2 protein expression incubated for 24 hrs by Western blotting analysis; type: functional, cell-based
NB-4 [37] = test: Induction of apoptosis in human NB4 cells incubated for 24 to 72 hrs; type: functional, cell-based; conditions: time 24-72 hrs
MV4-11 [38] = test: Antileukemic activity against human MV4-11 cells xenografted in BALB/c mouse assessed as reduction in tumor weight at 60 mg/kg,ip administrated for 30 days; type: functional, organism-based; conditions: time 30.0 day
MV4-11 [39] = test: Antileukemic activity against human MV4-11 cells xenografted in BALB/c mouse assessed as reduction in tumor volume at 30 mg/kg,ip administrated for 30 days; type: functional, organism-based; conditions: time 30.0 day
[40] = molecular target: T1, ATP-dependent Clp protease proteolytic subunit, mitochondrial; test: Agonist activity at human CLpP by measuring alpha-casein hydrolysis using alpha-casein as substrate by FITC staining based assay
Cell membrane = test: Induction of mitochondrial membrane potential loss in human MOLM-13 cells at 10 uM incubated upto 48 hrs by TMRE staining based assay
[41] = Toxicity in BALB/c mouse xenografted with human NB4 cells assessed as change in body weight at 60 mg/kg,ip administrated for 30 days; type: organism-based, NB-4; conditions: in vivo, 720 h, time 30 day
NB-4 [42] = test: Antileukemic activity against human NB4 cells xenografted in BALB/c mouse assessed as reduction in tumor volume at 30 mg/kg,ip administrated for 30 days; type: functional, organism-based; conditions: time 30.0 day
MOLM-13 [43] = test: Inhibition of mitochondrial respiration in human MOLM-13 cells assessed as reduction in oxygen consumption rate at 5 uM incubated for 24 hrs; type: functional, cell-based
NB-4 [44] = test: Inhibition of colony formation in human NB4 cells incubated for 14 days; type: functional, cell-based; conditions: time 14.0 day
MOLM-13 [45] = test: Antiproliferative activity against human MOLM-13 cells assessed as inhibition of cell growth at 20 uM by CCK-8 assay relative to control; type: functional

T1 sequence (Q16740 whole entry): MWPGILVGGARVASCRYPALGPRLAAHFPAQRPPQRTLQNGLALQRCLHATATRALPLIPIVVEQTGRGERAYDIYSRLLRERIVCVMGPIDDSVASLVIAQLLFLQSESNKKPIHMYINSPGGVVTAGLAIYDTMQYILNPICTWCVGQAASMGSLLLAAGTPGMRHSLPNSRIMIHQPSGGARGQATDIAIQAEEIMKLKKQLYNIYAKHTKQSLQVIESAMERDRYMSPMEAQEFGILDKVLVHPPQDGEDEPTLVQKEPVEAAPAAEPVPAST

Activity [3]: Active
IC50 (MOLM-13 [4]): 2.9 µM
Activity [9]: Active
IC50 (MV4-11 [13]): 5.8 µM
Activity [14]: Active
ΔTm [23]: 21.8 °C
EC50 [32]: 2.2 µM
EC50 [40]: 0.54 µM
Activity (Cell membrane): Active
SMILES: CC[C@H](C)[C@H]1C(=O)N(Cc2ccc(OC)c3ccccc23)C[C@@H]2N(C(=O)NCc3ccc(Br)cc3)CCC(=O)N12
Activity [1]: Non-Toxic
Activity (NB-4 [2]): Dose-Dependent Effect
Activity [5]: Non-Toxic
Activity (MOLM-13 [6]): Active
Activity (NB-4 [7]): Dose-Dependent Effect
inhibition (MV4-11 [8]): Active
IC50 (NB-4 [10]): 4.9 µM
Activity (MV4-11 [11]): Active
Activity (MOLM-13 [12]): Active
inhibition (MV4-11 [15]): Active
Activity (NB-4 [16]): Dose-Dependent Effect
Activity [17]: Non-Toxic
Activity (NB-4 [18]): Active
Activity (MV4-11 [19]): Active
Activity (NB-4 [20]): Active
Activity (NB-4 [21]): Active
IC50 (HEL [22]): 3.3 µM
Activity (HEL [24]): Active
Activity (NB-4 [25]): Dose-Dependent Effect
inhibition (MOLM-13 [26]): Active
Activity (MV4-11 [27]): Dose-Dependent Effect
Activity (MV4-11 [28]): Active
Activity (NB-4 [29]): Active
Activity (MV4-11 [30]): Active
Activity (MOLM-13 [31]): Active
inhibition (NB-4 [33]): Active
Activity (NB-4 [34]): Dose-Dependent Effect
inhibition (NB-4 [35]): Active
Activity (NB-4 [36]): Dose-Dependent Effect
Activity (NB-4 [37]): Active
Activity (MV4-11 [38]): Active
Activity (MV4-11 [39]): Active
Activity [41]: Non-Toxic
Activity (NB-4 [42]): Active
inhibition (MOLM-13 [43]): Active
inhibition (NB-4 [44]): Dose-Dependent Effect
inhibition at 20 µM (MOLM-13 [45]): 99.6%
